Source: PMC2737262 (Bioorganic & medicinal chemistry letters, 2009)

Key:
[1] = tested on: wild-type HIV-1 IIIB in MT-2 human T-cells; test: MTT colorimetric assay, survival of HIV-infected MT-2 cells; type: cell-based

Row | Molecule | CC50 (MT-2 cells) [µM] | EC50 [1] [µM]
1 | CC[C@H](C)[C@@H](CC(=O)N[C@@H](CCC(=O)O)CC(=O)O)NC(=O)C[C@@H](NC(=O)C[C@H](CCCN)NC(=O)C[C@H](Cc1c[nH]c2ccccc12)NC(=O)C[C@@H](NC(=O)C[C@H](CCC(=O)O)NC(=O)C[C@H](Cc1c[nH]c2ccccc12)NC(=O)C[C@@H](NC(=O)C[C@@H](N)CCCN)C(C)C)C(C)C)C(C)C [βWWI-1] | 100 ± 19.6 | –
2 | CC[C@H](C)[C@@H](CC(=O)N[C@@H](CCC(=O)O)CC(=O)O)NC(=O)C[C@@H](NC(=O)C[C@H](CCCN)NC(=O)C[C@H](Cc1cccc(C(F)(F)F)c1)NC(=O)C[C@@H](NC(=O)C[C@H](CCC(=O)O)NC(=O)C[C@H](Cc1c[nH]c2ccccc12)NC(=O)C[C@@H](NC(=O)C[C@@H](N)CCCN)C(C)C)C(C)C)C(C)C [βWXI-a] | 150 ± 3.3 | –
3 | CC[C@H](C)[C@@H](CC(=O)N[C@@H](CCC(=O)O)CC(=O)O)NC(=O)C[C@@H](NC(=O)C[C@H](CCCN)NC(=O)C[C@H](Cc1cccnc1)NC(=O)C[C@@H](NC(=O)C[C@H](CCC(=O)O)NC(=O)C[C@H](Cc1c[nH]c2ccccc12)NC(=O)C[C@@H](NC(=O)C[C@@H](N)CCCN)C(C)C)C(C)C)C(C)C [βWXI-b] | > 250 | –
4 | enfuvirtide | – | 0.0375
